Test results reported in patent publication US10647675B2 (priority 2015, dated 2020).
≈ marks a conversion by molar mass, not a printed value.

What was measured:
[1] = Nail permeability test through human nail using Franz cell; type: in vitro ADME; settings: 5% in propylene glycol:ethanol (1:4), 32° C.
Description: Permeability through human nail was measured by the method shown below using Franz cell. • Test Preparation: A test compound was dissolved in a propylene glycol:ethanol (1:4) mixed solution at a concentration of 5% to give a test preparation. As control compounds terbinafine and amorolfine were used. • (1) Human nail (thickness 300-500 μm) was fixed using a nail adapter for Franz cell, and mounted on Franz cell. • (2) The receptor chamber of the Franz cell was filled with phosphate buffer, and placed in a thermostatic chamber at 32° C. • (3) A test preparation was applied to the aforementioned human nail at 61 μL/cm^2, after which a receptor solution was collected over days, and the concentration of the test compound in the receptor was measured by a liquid chromatography mass spectrometry method (LC/MS/MS). The cumulative amount of drug permeation (μg/cm^2) was calculated from the measured drug concentration in the receptor. A cumulative amount of drug permeation relative to the time after start of the test was plotted and the slope at final 4 time points was taken as Flux (μg/cm^2/day). The abbreviations in the Table mean the following compounds • TBF: terbinafine • AMF: amorolfine

[2] = test system: Trichophyton rubrum KD-1130; assay: Antifungal activity evaluation test: minimum inhibitory concentration (MIC), broth dilution by reference to CLSI M38-A2; type: cell-based; settings: KD1130, read-out: MIC (T. rubrum)
In short: (§1)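 Broth microdilution after CLSI M38-A2: 2-fold DMSO dilution series in MOPS-buffered RPMI 1640 pH 7.0, inoculum 2×10^3 cells/mL final. Incubated 35° C for 4 days; MIC (μg/mL) is lowest concentration giving visually ≥80% growth inhibition versus growth control.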

[3] = test system: Trichophyton mentagrophytes SM-110; assay: as above; type: cell-based; settings: SM110, read-out: MIC (T. menta.)
In short: as §1

CCC(C)(C)c1ccc(CC(C)CN2C[C@@H](C)O[C@@H](C)C2)cc1 (some centres unmarked) [AMF, amorolfine, reference compound]
nail permeability (Flux) [1]: D (D: <0.001)
MIC [2]: ≤ 0.1 µg/mL
MIC [3]: ≤ 0.1 µg/mL

COc1ccccc1-c1cccnc1Cc1ccc(C(F)(F)F)cc1 [I-439, 3-(2-methoxyphenyl)-2-[4-(trifluoromethyl)benzyl]pyridine]
MIC [2]: 0.2 to 0.78 µg/mL (≈ 0.582 to 2.27 µM)
MIC [3]: 0.2 to 0.78 µg/mL (≈ 0.582 to 2.27 µM)

COc1cccc(Cl)c1-c1cccnc1Cc1ccc(C(F)(F)F)nc1 [I-441]
MIC [2]: ≤ 0.1 µg/mL
MIC [3]: ≤ 0.1 µg/mL

COc1ncccc1-c1cccnc1Oc1ccc(C(F)F)cc1 [I-443]
MIC [2]: ≤ 0.1 µg/mL
MIC [3]: ≤ 0.1 µg/mL

COc1ccccc1-c1cccnc1Oc1ccc(C(F)F)cc1 [I-444]
MIC [2]: ≤ 0.1 µg/mL
MIC [3]: ≤ 0.1 µg/mL

COc1ccccc1-c1cccnc1Oc1ccc(OC(F)F)cc1 [I-445]
MIC [2]: ≤ 0.1 µg/mL
MIC [3]: ≤ 0.1 µg/mL

COc1ncccc1-c1cccnc1Oc1ccc(OC(F)F)cc1 [I-446]
MIC [2]: ≤ 0.1 µg/mL
MIC [3]: ≤ 0.1 µg/mL

COc1ncccc1-c1cccnc1Oc1ccc(C(C)C)cc1 [I-447]
MIC [2]: ≤ 0.1 µg/mL
MIC [3]: ≤ 0.1 µg/mL

Cc1cc(Oc2ncccc2-c2cccc3c2OCC3)cnc1C(F)(F)F [I-448]
MIC [2]: ≤ 0.1 µg/mL
MIC [3]: ≤ 0.1 µg/mL

CCCN(C)c1ncc(Oc2ncccc2-c2cccc3c2OCC3)cn1 [I-449]
MIC [2]: ≤ 0.1 µg/mL
MIC [3]: ≤ 0.1 µg/mL

COCCN(C)c1ncc(Oc2ncccc2-c2cccc3c2OCC3)cn1 [I-450]
MIC [2]: ≤ 0.1 µg/mL
MIC [3]: ≤ 0.1 µg/mL

COCC(F)(F)c1ccc(Oc2ncccc2-c2cc(Cl)cnc2OC)cn1 [I-451]
MIC [2]: ≤ 0.1 µg/mL
MIC [3]: ≤ 0.1 µg/mL

CCCN(C)c1ncc(Oc2ncccc2-c2cc(Cl)cnc2OC)cn1 [I-452]
MIC [2]: ≤ 0.1 µg/mL
MIC [3]: ≤ 0.1 µg/mL

C=C(C)c1ccc(Oc2ncccc2-c2ccccc2OC)cn1 [I-453]
MIC [2]: ≤ 0.1 µg/mL
MIC [3]: ≤ 0.1 µg/mL

COc1cc(F)ccc1-c1cccnc1Oc1cnc(Br)c(C)c1 [I-454]
MIC [2]: ≤ 0.1 µg/mL
MIC [3]: ≤ 0.1 µg/mL

COc1ccccc1-c1cccnc1Oc1ccc(C(F)F)c(C)c1 [I-455]
MIC [2]: ≤ 0.1 µg/mL
MIC [3]: ≤ 0.1 µg/mL

COc1ncccc1-c1cccnc1Oc1ccc(C(F)F)c(C)c1 [I-456]
MIC [2]: ≤ 0.1 µg/mL
MIC [3]: ≤ 0.1 µg/mL

COc1ncncc1-c1cccnc1Oc1ccc(C(F)F)c(C)c1 [I-457]
MIC [2]: ≤ 0.1 µg/mL
MIC [3]: ≤ 0.1 µg/mL

COCC(F)(F)c1ccc(Oc2ncccc2-c2cc(OC)ccc2F)cn1 [I-458]
MIC [2]: ≤ 0.1 µg/mL
MIC [3]: ≤ 0.1 µg/mL

COc1ncccc1-c1cccnc1Oc1ccc(C)cc1 [I-459]
MIC [2]: ≤ 0.1 µg/mL
MIC [3]: ≤ 0.1 µg/mL

COCC(F)(F)c1ccc(Oc2ncccc2-c2ccc(OC)nc2OC)cn1 [I-460]
MIC [2]: ≤ 0.1 µg/mL
MIC [3]: ≤ 0.1 µg/mL

Cc1cc(Oc2ncccc2-c2cccc3ccnn23)cnc1C(F)(F)F [I-461]
MIC [2]: ≤ 0.1 µg/mL
MIC [3]: ≤ 0.1 µg/mL

Cc1cc(Oc2ncccc2-c2cccc3ccnn23)ccc1C(F)F [I-462]
MIC [2]: ≤ 0.1 µg/mL
MIC [3]: ≤ 0.1 µg/mL

CN(C/C=C/C#CC(C)(C)C)Cc1cccc2ccccc12 [TBF, terbinafine, reference compound]
nail permeability (Flux) [1]: D (D: <0.001)
MIC [2]: ≤ 0.1 µg/mL
MIC [3]: ≤ 0.1 µg/mL
